Article PMC12264943, “Identification of New Human P2X7 Antagonists Using Ligand- and Structure-Based Virtual Screening” (Journal of Chemical Information and Modeling, 2025)
pIC50: −log10 of the molar value.

Columns and labels:
Assay type in all cases: cell-based
HEK-293 WT cells = assay: Cytotoxicity assay (CellTiter Blue); conditions: 10 μM, 24 h, nontransfected HEK-293 cells
Description: HEK-293 WT cells were seeded at 4 × 10^4 cells/well in 96-well plates precoated with poly-L-lysine. After 24 h, the cells were washed with DPBS and treated with test compounds (10 μM) in 2% FBS-containing medium for 24 h. After this, the medium containing the test compounds was replaced with 20% CellTiter-Blue reagent (Promega) in 2% FBS medium. After a 2-h incubation, fluorescence (excitation: […]; emission: […]) was measured using a Clariostar plate reader. Data were normalized to untreated control cells (100%) and wells without cells (0%).
5 Concentration inhibition curve determination for compound 2g (A) and evaluation of cytotoxicity for compounds 2, 9, and 2g. […] The data on the graph represent the mean from three independent experiments (n = 3 replicates per experiment). (B) The cytotoxicity of the compounds was evaluated on nontransfected HEK-293 cells using a CellTiter Blue assay. The cells were incubated for 24 h with the compounds at 10 μM. The fluorescent signal obtained from vehicle-treated cells (0.1% DMSO) was used to normalize the data to 100%, and the one obtained from wells not containing cells (BLANK) was set as 0%. The data are the combination of three biological replicates (error bars represent the SEM (n = 3)) analyzed by one-way ANOVA using Dunnet’s function (P**** < 0.0001; **< 0.002; * < 0.02; ns, non significant).
The potential cytotoxicity of the hit compounds identified, 2, 9, and 2g, was assessed at 10 μM by CellTiter Blue assay using nontransfected HEK-293 cells (Figure B).

hP2X7 [1] = biological target: T1, hP2X7 (Homo sapiens, UniProt Q99572); assay: Membrane Potential Red (MPR) dye assay, HEK-293 cells stably transfected with hP2X7; conditions: HEK293, 1 mM ATP, hP2X7 HEK-293
T1 construct: expressed in transfected cells; host or cells: HEK-293, stably transfected (gift of E. Adinolfi's group, Ferrara University)
T1 sequence (Q99572 1-595): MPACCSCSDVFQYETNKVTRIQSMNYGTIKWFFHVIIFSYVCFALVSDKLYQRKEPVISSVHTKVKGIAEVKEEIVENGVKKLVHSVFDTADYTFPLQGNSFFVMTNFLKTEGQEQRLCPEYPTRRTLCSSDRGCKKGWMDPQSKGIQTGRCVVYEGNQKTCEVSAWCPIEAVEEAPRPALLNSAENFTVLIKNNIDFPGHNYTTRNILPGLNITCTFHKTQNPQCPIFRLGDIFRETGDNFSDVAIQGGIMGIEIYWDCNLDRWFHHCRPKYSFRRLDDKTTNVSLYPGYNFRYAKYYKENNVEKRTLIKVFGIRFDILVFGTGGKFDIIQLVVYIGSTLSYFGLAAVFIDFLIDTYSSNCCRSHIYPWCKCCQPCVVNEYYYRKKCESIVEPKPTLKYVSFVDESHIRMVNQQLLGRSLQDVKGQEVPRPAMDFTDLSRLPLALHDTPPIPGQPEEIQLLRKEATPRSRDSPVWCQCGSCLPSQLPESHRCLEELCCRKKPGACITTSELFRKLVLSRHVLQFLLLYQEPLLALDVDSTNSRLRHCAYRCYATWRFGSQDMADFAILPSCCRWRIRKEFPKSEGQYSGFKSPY
Description: (§1) Astrocytoma 1321 N1 (established by Dr. Gaia Pasqualetto) and HEK-293 (kindly gifted by E. Adinolfi’s group, Ferrara University) both stably transfected with hP2X7, were used to assess the activity of the small molecules selected from the VS. Cells were maintained in DMEM:F12 (PanBiotech) supplemented with 10% FBS, 1% pen-strep, and 150 μg/mL G418 (PanBiotech).
Cells were plated as described for the YO-PRO 1 dye uptake assay. MPR dye (Molecular Devices) was prepared following the manufacturer’s protocol and diluted 1:10 in ECS-LD buffer. After washing with DPBS, cells were incubated with the dye for 30 min at 37 °C. Fluorescence changes (excitation: 525 nm; emission: 560 nm) were recorded using a Clariostar plate reader during ATP-induced membrane depolarization. Baseline fluorescence was recorded for 5 cycles, and ATP was added via an automated injector (10 μL). Membrane depolarization was quantified as the ratio of the maximal fluorescence change over baseline intensity (Δ(F max–F0)/F0)).
(§2) 4 Evaluation of compound 2 and 9 analogue activity using YO-PRO 1 and MPR assays. The activity of compound 2 (A and B) and 9 (C and D) analogues was evaluated in YO-PRO 1 (A and C) and MPR (B and D) assays. The compounds were tested at 10 μM and preincubated for either 20 (YO-PRO 1) or 30 min (MPR). The baseline was recorded for 5 cycles before ATP treatment (1 mM). Fluorescence was recorded for 25 (YO-PRO 1) or 5 min (MPR). The data were normalized by setting as 100% for the fluorescence measured from hP2X7 HEK-293 cells incubated with vehicle (0.1% DMSO) and treated with 1 mM ATP and 0% for the fluorescence recorded by the cells not treated with ATP. The data shown correspond to three independent biological replicates (3 technical replicates per experiment; error bars represent the SEM from the mean values of each biological replicate (n = 3)). The statistical analysis was performed with one-way Anova using Dunnett’s function (P**** < 0.0001; P*** < 0.0003; P** < 0.002; P* < 0.02).

hP2X7 [2] = biological target: T1, hP2X7; assay: YO-PRO 1 dye uptake assay, HEK-293 cells stably transfected with hP2X7
Description: as §1
Astrocytoma 1321 N1 cells (2–2.5 × 10^4 cells/well) and HEK-293 cells (4–5 × 10^4 cells/well) expressing hP2X7 were seeded in poly-L-lysine-coated 96-well plates (Sarstedt) 24 h before the experiment. YO-PRO 1 dye was prepared at 5 μM in extracellular solution with low divalent cations (ECS-LD) buffer (147 mM NaCl, 10 mM HEPES, 13 mM glucose, 0.2 mM CaCl2, 2 mM KCl, pH 7.4) and added to cells after washing them with Dulbecco’s phosphate- buffered saline (DPBS) (PanBiotech) and incubated for 20 min at 37 °C. ATP-induced dye uptake, mediated by hP2X7 activation, was monitored using a Clariostar plate reader (excitation: 485 nm; emission: 538 nm) for 30 cycles (75–150 s/cycle), after recording the baseline for five cycles. hP2X7 activation was quantified at cycle 10 by calculating the fluorescence intensity (FI) ratio (Δ(Fcycle 10–F cycle 1)/cycle time).
Compounds 2 and 9, identified as hits, were further evaluated for concentration-dependent inhibition (IC50) of hP2X7 activation in the YO-PRO 1 dye uptake assay using HEK-293 cells stably transfected with hP2X7 (unfortunately, at this point in the study, the stably transfected 1321N1 cells lost P2X7 expression, and we were unable to recover them from frozen aliquots), for which the ATP EC50 was determined to be approximately 1 mM (Supporting material Figure 4C). Seven concentrations (100 to 0.03 μM) were tested, but due to precipitation at 100 μM, the DMSO concentration was increased to 1%.
3 Inhibitory concentration response evaluation of compounds 2 and 9 and their groups highlighted for SAR. […] Compound activity was evaluated along a time of 20 min (75 s per cycle) after ATP addition (700 μM). The fluorescence intensity (FI) values of the first 10 cycles were considered for assessing their ability to inhibit hP2X7. The curves represent three biological replicates (n = 4 per replicate). Data were normalized by setting as 100% the FI recorded by hP2X7 HEK-293 cells incubated in 1% DMSO and stimulated by ATP, and as 0% the FI recorded by the same cells but treated with ECS-LD (assay buffer). (C) Highlighted areas of compound 2 considered for SAR study. R1 refers to the ethyl-benzyl group of the molecules, and R2 and R3 refer to the benzo-(1,3)-dioxol groups. (D) Highlighted areas of compound 9 considered for SAR study. We have defined the area highlighted in yellow and numbered as 1 as the “front” region of the molecule and the one colored in pink and named as 2 as the “back” region of the molecule. L highlights the urea and amide linkers of compounds 2 and 9, respectively.
as §2

O=C(Nc1ccc2c(c1)OCO2)NC(Cc1ccc(F)cc1)Cc1ccc(F)cc1 [Compound 2g]
reduction in cell viability (HEK-293 WT cells): ~10% | inhibition at 10 µM (hP2X7 [1]): 70% | pIC50 (hP2X7 [2]; YO-PRO 1 dye uptake, hP2X7 HEK-293 cells, 100 to 0.03 μM, 1% DMSO, read-out: IC50, inhibition of hP2X7 activation): 5.88 | hP2X7 inhibition in YO-PRO 1 dye uptake, SAR (hP2X7 [2]; analogues at 10 μM, 1 mM ATP): retained potency comparable to that of the hit compound | reduction of hP2X7 activity (hP2X7 [2]; analogues at 10 μM, YO-PRO 1, 1 mM ATP, 0.1% DMSO): 80%
